Assay results from US20100298371A1, “PROCESS FOR PREPARING CHEMICALLY AND CHIRALLY PURE SOLIFENACIN BASE AND ITS SALTS” (priority 2007, published 2010).
Structures can show the parent of a compound that is named as a salt. Where two headings read alike, the source gives them in different places.

Key:
[1] = Pharmacokinetic profile of Solifenacin salts in fasted male Wistar rats; type: in vivo; details: for absorption / rate of absorption: compared to the succinate salt
[2] = Intrinsic dissolution rate of various salts of Solifenacin; type: physicochemical
[3] = Stability study on storage (40° C. ± 2° C./75% ± 5% RH); type: physicochemical
Protocol: The complete x-ray powder spectrum, was recorded with a Rigaku D/Max 2200 VPC X-ray powder diffractometer model using copper radiation. The X-ray diffraction pattern was recorded by keeping the instrument parameters as below: • X-ray: Cu/40 kv/30 mA, Diverging slit: 1°, Scattering slit: 1°, Receiving slit: 0.15 mm, Monochromator RS: 0.8 mm, Counter: Scintillation counter,
Solifenacin base and its salts were analyzed for purity by analytical HPLC at λ^max 220 nm using column J'sphere-ODS, 150 mm×4.6 mm×4μ or its equivalent on AGILENT 1100 series under the following conditions, • Detector: UV absorption photometer Wave length: 220 nm Column temp.: 30° C. • Flow rate: 1.0 mL/min. Injection Vol.: 5 μL • Mobile Phase (gradient elution): 0.05 TFA buffer in water:Acetonitrile
Several of the Solifenacin salts prepared according to the present invention has chemical and polymorphic stability on storage.

[4] = Table 3b, fasted male Wistar rats, dose 30 mg/kg, mean
[5] = Table 3a, fasted male Wistar rats, dose 30 mg/kg, mean
[6] = After 3 Month at 40° C. ± 2° C./75% ± 5% RH
[7] = Table 3b, fasted male Wistar rats, dose 30 mg/kg, mean, hydrochloride salt
[8] = Table 3b, fasted male Wistar rats, dose 30 mg/kg, mean, succinate salt
[9] = fasted male Wistar rats, ratio to succinate

Compound | AUC (0-inf) [1, 4] | AUC (0-t) [1, 4] | Cmax [1, 4] | Tmax [1, 4] | Description [3, 6] | Polymorphism XRD [3, 6] | Purity (By HPLC) [3, 6] | Water (by KFR) [3, 6] | Description ([3]; Initial) | Polymorphism XRD ([3]; Initial) | Purity (By HPLC) ([3]; Initial) | Water (by KFR) ([3]; Initial) | Kel [1, 4] | T1/2 [1, 4] | other results
O=C(O[C@H]1CN2CCC1CC2)N1CCc2ccccc2[C@@H]1c1ccccc1.O=C1O[C@H]([C@@H](O)CO)C(O)=C1O [Solifenacin Ascorbate] | 96.99 ng·h/mL | 85.66 ng·h/mL | 29.04 ng/mL | 1.30 h | – | – | – | – | – | – | – | – | – | – | absorption / rate of absorption ([1]; in words): faster; better absorption than the succinate salt ([1]; relative to succinate): 20%
O=C(O)c1cc(O)ccc1O.O=C(O[C@H]1CN2CCC1CC2)N1CCc2ccccc2[C@@H]1c1ccccc1 [Solifenacin Gentisate, (+)-(1S,3′R)-quinuclidin-3′-yl 1-phenyl-1,2,3,4-tetrahydro-isoquinoline-2-carboxylate gentisate salt] | 74.19 ng·h/mL | 58.97 ng·h/mL | 30.66 ng/mL | 1.70 h | Off white colored | No Change | 99.46% | 0.29% | Off white colored powder | Crystalline pattern | 99.63% | 0.16% | – | – | Intrinsic dissolution rate ([2]; pH 1.2 HCl): 6.845 mg/min · cm^2; Intrinsic dissolution rate ([2]; pH 4.5 Acetate Buffer): 0.2356 mg/min · cm^2; Intrinsic dissolution rate ([2]; pH 6.8 Phosphate Buffer): 0.4932 mg/min · cm^2; AUC (0-inf) [1, 5]: 74.19 ng·h/mL; AUC (0-t) [1, 5]: 58.97 ng·h/mL; Cmax [1, 5]: 30.66 ng/mL; Tmax [1, 5]: 1.70 h; peak plasma concentrations compared with Solifenacin succinate ([1]; in words): comparable
O=C(O[C@H]1CN2CCC1CC2)N1CCc2ccccc2[C@@H]1c1ccccc1 [Solifenacin Hydrobromide, Solifenacin hydrobromide] | – | – | – | – | – | – | – | – | – | – | – | – | – | – | Tmax ([1]; Table 3b, fasted male Wistar rats, dose 30 mg/kg, mean, hydrobromide): 1.27 h; AUC (0-inf) ([1]; male, Wistar, rat, plasma, 30 mg/kg, Table 3b, fasted male Wistar rats, dose 30 mg/kg, mean, read-out: AUC (0-inf)): 74 ng·h/mL; AUC (0-t) ([1]; male, Wistar, rat, plasma, 30 mg/kg, Table 3b, fasted male Wistar rats, dose 30 mg/kg, mean, read-out: AUC (0-t)): 59.9 ng·h/mL; Cmax ([1]; male, Wistar, rat, plasma, 30 mg/kg, Table 3b, fasted male Wistar rats, dose 30 mg/kg, mean, read-out: Cmax): 14.1 ng/mL
O=C(O[C@H]1CN2CCC1CC2)N1CCc2ccccc2[C@@H]1c1ccccc1 [Solifenacin Hydrochloride, (+)-(1S,3′R)-quinuclidin-3′-yl 1-phenyl-1,2,3,4-tetrahydro-isoquinoline-2-carboxylate hydrochloride salt] | – | – | – | – | Off white colored | No Change | 99.6% | 0.32% | Off white colored powder | Crystalline pattern | 99.54% | 0.14% | – | – | Intrinsic dissolution rate ([2]; pH 1.2 HCl, listed as HCl, hydrochloride salt): 6.6836 mg/min · cm^2; Intrinsic dissolution rate ([2]; pH 4.5 Acetate Buffer, listed as HCl, hydrochloride salt): 21.08 mg/min · cm^2; Intrinsic dissolution rate ([2]; pH 6.8 Phosphate Buffer, listed as HCl, hydrochloride salt): 20.262 mg/min · cm^2; AUC (0-inf) [1, 7]: 59.52 ng·h/mL; AUC (0-t) [1, 7]: 50.54 ng·h/mL; Cmax [1, 7]: 13.67 ng/mL; Tmax [1, 7]: 1.05 h; AUC (0-inf) ([1]; male, Wistar, rat, plasma, 30 mg/kg, Table 3a, fasted male Wistar rats, dose 30 mg/kg, mean, read-out: AUC (0-inf)): 158 ng·h/mL; AUC (0-t) ([1]; male, Wistar, rat, plasma, 30 mg/kg, Table 3a, fasted male Wistar rats, dose 30 mg/kg, mean, read-out: AUC (0-t)): 147 ng·h/mL; Cmax ([1]; male, Wistar, rat, plasma, 30 mg/kg, Table 3a, fasted male Wistar rats, dose 30 mg/kg, mean, read-out: Cmax): 94.4 ng/mL; Tmax ([1]; male, Wistar, rat, plasma, 30 mg/kg, Table 3a, fasted male Wistar rats, dose 30 mg/kg, mean, read-out: Tmax): 0.6 h; Vd ([1]; rat, plasma, Table 3a, fasted male Wistar rats, dose 30 mg/kg, mean, read-out: Vz): 1530 L
O=C(O[C@H]1CN2CCC1CC2)N1CCc2ccccc2[C@@H]1c1ccccc1 [Solifenacin Succinate, (+)-(1S,3′R)-quinuclidin-3′-yl 1-phenyl-1,2,3,4-tetrahydro-isoquinoline-2-carboxylate succinate salt, reference compound] | – | – | – | – | – | – | – | – | – | – | – | – | – | – | Intrinsic dissolution rate ([2]; pH 1.2 HCl, succinate salt): 10.666 mg/min · cm^2; Intrinsic dissolution rate ([2]; pH 4.5 Acetate Buffer, succinate salt): 9.845 mg/min · cm^2; Intrinsic dissolution rate ([2]; pH 6.8 Phosphate Buffer, succinate salt): 11.002 mg/min · cm^2; AUC (0-inf) [1, 8]: 76.69 ng·h/mL; AUC (0-t) [1, 8]: 60.09 ng·h/mL; Cmax [1, 8]: 23.72 ng/mL; Tmax [1, 8]: 2.67 h; Tmax (absorption, as stated in text) ([1]; text summary of Table 3b, fasted male Wistar rats, succinate salt): 6.67 h
(+)-(1S,3′R)-quinuclidin-3′-yl 1-phenyl-1,2,3,4-tetrahydro-isoquinoline-2-carboxylate besylate salt [Solifenacin Besylate] | 49.27 ng·h/mL | 45.54 ng·h/mL | 12.84 ng/mL | 1.73 h | – | – | – | – | – | – | – | – | 0.36 h⁻¹ | 1.95 h | –
(+)-(1S,3′R)-quinuclidin-3′-yl 1-phenyl-1,2,3,4-tetrahydro-isoquinoline-2-carboxylate oxalate salt [Solifenacin Oxalate] | 78.78 ng·h/mL | 49.77 ng·h/mL | 9.10 ng/mL | 1.62 h | Off white colored | No Change | 99.36% | 0.33% | Off white colored powder | Crystalline pattern | 99.49% | 0.18% | 0.18 h⁻¹ | 6.19 h | Intrinsic dissolution rate ([2]; pH 1.2 HCl): 6.5822 mg/min · cm^2; Intrinsic dissolution rate ([2]; pH 4.5 Acetate Buffer): 6.5084 mg/min · cm^2; Intrinsic dissolution rate ([2]; pH 6.8 Phosphate Buffer): 4.9096 mg/min · cm^2; AUC (0-inf) [1, 5]: 345.79 ng·h/mL; AUC (0-t) [1, 5]: 321.28 ng·h/mL; Cmax [1, 5]: 252.38 ng/mL; Kel [1, 5]: 0.26 h⁻¹; T1/2 [1, 5]: 4.76 h; Tmax [1, 5]: 0.37 h; higher plasma concentration (Bio available, Cmax) compared to Solifenacin succinate salt [1, 9]: ~10 fold; higher plasma exposure compared to Solifenacin succinate salt [1, 9]: 5 times; T1/2 value compared to the succinate salt ([1]; in words): higher; absorption / rate of absorption ([1]; in words): rapid absorption
Solifenacin phosphate | 57.63 ng·h/mL | 50.58 ng·h/mL | 12.63 ng/mL | 1.00 h | – | – | – | – | – | – | – | – | 0.29 h⁻¹ | 2.43 h | –
